From patent publication US20100047839A1, “LATENT FLUORIMETRIC INDICATOR FOR BIOLOGICAL ANALYTES DETERMINATION AND THE PREPARATION METHOD THEREOF” (NATIONAL TAIPEI UNIVERSITY OF TECHNOLOGY, priority 2008, published 2010) come the findings set out here.

Type in all cases: biochemical
Holding throughout (conditions): BQC 10 μM, λex 500 nm, λem 595 nm, 4 h, 37° C., pH 7.6, baseline subtracted

Test [1] concerns the target T1, DT Diaphorase (Homo sapiens, UniProt P15559). As to the kind of experiment: Oxygen-insensitive DTD-coupling enzyme assay for glucose-6-phosphate determination (glucose-6-phosphate dehydrogenase, phosphoglucomutase, NAD+, DT Diaphorase). As for the experimental part:
(§1) All the fluorimetric measurements carried out with an excitation wavelength of λex=500 nm and an emission wavelength of λem=595 nm. The solutions containing BQC (10 μM), DTD (1 unit), and the corresponding dehydrogenase (1 to 10 unit), NAD^+ (10 μM), and ethanol, 3-hydroxybutrate or glucose-6-phosphate (0 to 10 μM) in Tris-HCl buffer with a final volume of 1 mL were incubated for 4 h at 37° C. The fluorimetric intensity of each solution after subtracting the baseline intensity ([analytes]=0) was plotted versus the analytes concentration.
All different glucose-6-phophate concentration analytes are tabulated in the table below, and the environment of assay is maintained in pH 7.6 at 37° C.

For test [2], the target named is T1, DT Diaphorase. As to the kind of experiment: Oxygen-insensitive DTD-coupling enzyme assay for ethanol determination (alcohol dehydrogenase, NAD+, DT Diaphorase). As for the experimental part: as §1
All different ethanol concentration analytes are tabulated in the table below, and the environment of assay is maintained in pH 7.6 at 37° C.

In test [3] the target is T1, DT Diaphorase. In words: Oxygen-insensitive DTD-coupling enzyme assay for 3-hydroxybutyrate determination (3-hydroxybutyrate dehydrogenase, NAD+, DT Diaphorase). As for the experimental part: as §1
All different 3-hydroxybutyrate concentration analytes are tabulated in the table below, and the environment of assay is maintained in pH 7.6 at 37° C.

Molecules are shown by their SMILES.

T1 sequence (P15559 whole entry, species assumed): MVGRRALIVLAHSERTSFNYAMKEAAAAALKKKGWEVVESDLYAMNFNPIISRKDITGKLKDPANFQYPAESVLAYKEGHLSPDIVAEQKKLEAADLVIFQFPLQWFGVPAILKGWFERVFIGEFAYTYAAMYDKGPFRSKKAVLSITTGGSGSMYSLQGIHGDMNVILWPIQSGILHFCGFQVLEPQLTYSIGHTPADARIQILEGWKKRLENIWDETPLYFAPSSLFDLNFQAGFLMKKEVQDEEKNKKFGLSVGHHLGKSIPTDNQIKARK

On to `CC1=C(C)C(=O)C(C(C)(C)CC(=O)N(C)CCN(C)C(=O)Oc2ccc3c(C#N)c(-c4nc5ccccc5s4)c(=O)oc3c2)=C(C)C1=O` [BQC], for which the relative fluorescence intensity on DT Diaphorase [1] (glucose-6-phosphate 1 μM) is on record as 17.02; at DT Diaphorase [1] (glucose-6-phosphate 2 μM) it was 36.84; on DT Diaphorase [1] (glucose-6-phosphate 4 μM) it was 76.41; at DT Diaphorase [1] (glucose-6-phosphate 6 μM) it was 144.45; at DT Diaphorase [1] (glucose-6-phosphate 8 μM) it was 175.2; on DT Diaphorase [1] (glucose-6-phosphate 9 μM) it was 190.32. Besides, the relative fluorescence intensity on DT Diaphorase [1] (glucose-6-phosphate 10 μM) is 207.94; on DT Diaphorase [2] (ethanol 0.2 μM), 10.79; on DT Diaphorase [2] (ethanol 0.6 μM), 26.18; at DT Diaphorase [2] (ethanol 0.8 μM), 35.23; at DT Diaphorase [2] (ethanol 1 μM), 39.42; on DT Diaphorase [2] (ethanol 2 μM) it was 77.06. Also, the relative fluorescence intensity on DT Diaphorase [3] (3-hydroxybutyrate 1 μM) came to 16.17; at DT Diaphorase [3] (3-hydroxybutyrate 2 μM), 47.59; on DT Diaphorase [3] (3-hydroxybutyrate 4 μM), 83.74; at DT Diaphorase [3] (3-hydroxybutyrate 6 μM), 126.26; on DT Diaphorase [3] (3-hydroxybutyrate 8 μM), 144.93; on DT Diaphorase [3] (3-hydroxybutyrate 10 μM), 198.56.
